Source: publication PMC7279038, “Antioxidant and Neuroprotective Effects Induced by Cannabidiol and Cannabigerol in Rat CTX-TNA2 Astrocytes and Isolated Cortexes” (International Journal of Molecular Sciences, 2020)

What was measured:
[1] = DPPH scavenging ability test; details: mean ± S.D., n = 3
Protocol: For the 1,1-diphenyl-2-picrylhydrazyl (DPPH) radical scavenging assay, sample solution was added to 4 mL of a 0.004% methanol solution of DPPH. The sample absorbance was read at 517 nm after a 30 min incubation at room temperature in the dark. DPPH radical scavenging activity was expressed as IC50 values.

[2] = Cupric reducing antioxidant capacity (CUPRAC); details: mean ± S.D., n = 3
Protocol: For the cupric ion reducing activity (CUPRAC) activity assay, sample solution was added to premixed reaction mixture containing CuCl2 (1 mL, 10 mM), neocuproine (1 mL, 7.5 mM) and NH4Ac buffer (1 mL, 1 M, pH 7.0). Similarly, a blank was prepared by adding sample solution (0.5 mL) to premixed reaction mixture […] without CuCl2. Then, the sample and blank absorbances were read at 450 nm after a 30 min incubation at room temperature. The absorbance of the blank was subtracted from that of the sample. CUPRAC activity was expressed as IC50 values.

histone H2B = test: Untargeted proteomic analysis of cortexes, H2B; set-up: species or system rat; details: CBD 1000 nM, CBG 1 nM
Protocol: Sprague–Dawley rats (200–250 g) were sacrificed by CO2 inhalation (Italian Health Ministry authorization N. F4738.N.XTQ, delivered on 11th November 2018) and isolated prefrontal cortex specimens were immediately explanted and incubated in thermostatic shaking bath at 37 °C for 1 h (incubation period), in Krebs–Ringer buffer at the following K^+ concentrations:
Cortexes were stimulated with CBD (1000 nM) and CBD (1 nM). Afterwards, specimens were homogenized in perchloric acid solution (0.05 M) for the extraction and quantification of nitrites, via the aforementioned colorimetric Griess assay, and serotonin (5-HT), 5-hydroxyindoleacetic (5HIIA),3-hydroxykinurenine (3-HK) and kinurenic acid (KA) (ng/mg wet tissue) via high performance liquid chromatography analysis. Additionally, an untargeted proteomic analysis was carried out on the cortex homogenate. The analytical protocols for 5-HT, 5HIIA, 3-HK, KA and protein level determinations are described below. […]
After protein quantification, a volume corresponding to 50 μg of proteins was loaded onto a Nanosep 10-kDa-cutoff filter (Pall Corporation, Michigan, USA) and digested according to the protocol we routinely use in our laboratory, adapted from Distler et al. Briefly, the sample was washed twice with 200 μL urea buffer (8M urea, 100 mM Tris pH 8.5 in milliQ water) to remove the detergents present in the lysis buffer. […]

[3] = tested on: CTX-TNA2 astrocyte cell line; test: ROS production by flow cytometry; assay type: cell-based, rat; details: challenged with 300 µM H2O2; 1000 nM CBD, 1 nM CBG; 24 and 48 h
Protocol: The CTX-TNA2 rat astrocytes were purchased from the European Collection of Cell Cultures (ECACC), Sigma-Aldrich, Milan, Italy, and cultured as already indicated. Cells were grown in Dulbecco’s Modified Eagle Medium supplemented with 10% of FBS and penicillin–streptomycin (100 µgmL^−1) (all from EuroClone SpA Life-Sciences-Division, Milan, Italy) and maintained in a humified atmosphere of 5% CO2 at 37 °C. Cells were subcultivated at a ratio of 1.2 to 1.8 and the medium was changed every 3 days. CTX-TNA2 astrocytes were plated in 25 or 75 cm^2 flasks, according to experimental needing and cells between the eight and the 15 passage were used.
When indicated, the cells were treated with H2O2 300 µM for three hours and different concentrations of CBD (1–1000 nM) and CBG (1–1000 nM). […]
Reactive oxygen species (ROS) production was determined as already reported by monitoring by flow cytometry the increase in green fluorescence after labeling the cells (5 × 10^5) with 5 μmolL^−1 of 5-(and-6)-chloromethyl-2′,7′-dichlorodihydrofluorescein diacetate, acetyl ester (CM-H2DCFDA, Molecular Probes, Invitrogen, Life-Sciences-Division, Milano, Italy) for 40 min followed by 20 min of recovery at 37 °C. The increase in green fluorescence, indicating the production of ROS, was detected by a Cytoflex flow cytometer with an FL1 detector in a log mode (Beckmann Coulter, FL, USA). […]

## CCCCCc1cc(O)c(C/C=C(\C)CCC=C(C)C)c(O)c1 [CBG, cannabigerol]
[1]
  IC50: 1.95 ± 0.01 mM
[2]
  IC50: 590 ± 10 µM
Histone H2B
  effect on K+ 60 mM-induced reduction in H2B level: effective in counteracting the downregulation
[3]
  ROS production: reduction in ROS production

## C=C(C)[C@@H]1CCC(C)=C[C@H]1c1c(O)cc(CCCCC)cc1O [CBD, Cannabidiol]
[1]
  IC50: 1.87 ± 0.04 mM
[2]
  IC50: 940 ± 10 µM
Histone H2B
  effect on K+ 60 mM-induced reduction in H2B level: effective in counteracting the downregulation
[3]
  ROS production: reduction in ROS production
